{"source": "patent US20240156104A1", "about": "“FUNGI-DERIVED COMPOSITION, ITS PRODUCTION PROCESS AND USES” (NATURAL RESOURCES INSTITUTE FINLAND (LUKE), priority 2021, published 2024)", "test_system": "coxsackievirus A9 (CVA9)", "experiment": "cytopathic effect (CPE) inhibition assay against CVA9 in A549 cells", "type": "cell-based", "conditions": "virus treated 37° C. 1 hour; for antiviral activity of commercial ganoderic acid against CVA9 (FIG. 10A): 100 μM, 500 μM, 1 mM, 5 mM and 10 mM; for antiviral activity of commercial ganoderic acids against CVA9 (FIG. 10B): 12.5 μM, 25 μM, 50 μM, 100 μM and 500 μM, MOI 100"}
{"smiles": "C[C@H](CC(=O)C[C@@H](C)[C@H]1C[C@H](O)[C@@]2(C)C3=C(C(=O)C[C@]12C)[C@@]1(C)CCC(=O)C(C)(C)[C@@H]1C[C@@H]3O)C(=O)O", "note": "[GA A, Ganoderic Acid A]", "values": [{"measurement": "antiviral activity of commercial ganoderic acid against CVA9 (FIG. 10A)", "setting": "MOI 66.7", "result": "fails to demonstrate any antiviral activity"}, {"measurement": "antiviral activity of commercial ganoderic acid against CVA9 (FIG. 10A)", "setting": "MOI 66.7, listed as Ganoderic Acid A", "result": "does not possess any antiviral activity"}]}
{"smiles": "CC(=O)O[C@H]1C[C@H]([C@H](C)CC/C=C(\\C)C(=O)O)[C@@]2(C)CC=C3C(=CC[C@H]4C(C)(C)C(=O)CC[C@]34C)[C@]12C", "note": "[GA TQ, Ganoderic Acid TQ]", "values": [{"measurement": "antiviral activity of commercial ganoderic acids against CVA9 (FIG. 10B)", "result": "fails to demonstrate any antiviral activity"}]}
{"smiles": "C/C(=C\\CC[C@@H](C)[C@H]1C[C@H](O)[C@@]2(C)C3=CC[C@H]4C(C)(C)C(=O)CC[C@]4(C)C3=CC[C@]12C)C(=O)O", "note": "[GA TR, Ganoderic Acid TR]", "values": [{"measurement": "antiviral activity of commercial ganoderic acids against CVA9 (FIG. 10B)", "result": "fails to demonstrate any antiviral activity"}]}
{"smiles": "C/C(=C\\CC[C@@H](C)[C@H]1CC[C@@]2(C)C3=CC[C@H]4C(C)(C)[C@@H](O)CC[C@]4(C)C3=CC[C@]12C)C(=O)O", "note": "[GA Y, Ganoderic Acid Y]", "values": [{"measurement": "antiviral activity of commercial ganoderic acids against CVA9 (FIG. 10B)", "result": "fails to demonstrate any antiviral activity"}]}
